This data set relates to apolipoprotein B mRNA. As to the kind of experiment: High fat fed C57BL/6 mice, 6 week timecourse: target mRNA levels in liver. Format: in vivo, mouse. To be noted: six weeks. On the procedure:
Male C57BL/6 mice (n=8) receiving a high fat diet (60% kcal fat) were evaluated over the course of 6 weeks for the effects of treatment with the antisense oligonucleotide, ISIS 147764. Control animals received saline treatment (50 mg/kg). A subset of animals received a daily oral dose (20 mg/kg) atorvastatin calcium (Lipitor®, Pfizer Inc.). All mice, except atorvastatin-treated animals, were dosed intraperitoneally every three days (twice a week), after fasting overnight, with 5, 25, 50 mg/kg ISIS 147764 (SEQ ID No: 109) or saline (50 mg/kg) for six weeks. Serum cholesterol and lipoproteins were analyzed at 0, 2 and 6 week interim timepoints. At study termination, animals were sacrificed 48 hours after the final injections and evaluated for levels of target mRNA levels in liver, cholesterol, lipoprotein, triglyceride, liver enzyme (AST and ALT) and serum glucose levels as well as body, liver, spleen and fat pad weights.
Male C57BL/6 mice (n=8) receiving a high fat diet (60% kcal fat) were evaluated over the course of 6 weeks for the effects of ISIS 147764 on mRNA expression. Control animals received saline treatment (50 mg/kg). Mice were dosed intraperitoneally every three days (twice a week), after fasting overnight, with 5, 25, 50 mg/kg ISIS 147764 (SEQ ID No: 109) or saline (50 mg/kg) for six weeks. At study termination, animals were sacrificed 48 hours after the final injections and evaluated for levels of target mRNA levels in liver.

Results on 1 sequence are retold here after patent US7803930B2, “Antisense modulation of apolipoprotein B-expression” (Isis Pharmaceuticals, Inc., priority 2002, dated 2010).

“GTCCCTGAAGATGTCAATGC (2'-MOE gapmer, further chemistry not given here) [ISIS 147764]”: the “reduction of target mRNA levels in liver” value stood at 15% (5 mg/kg i.p. every three days), 75% (25 mg/kg i.p. every three days) and 88% (50 mg/kg i.p. every three days).
